Experimental data published in PubChem BioAssay (NCI).
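Method: 48-hour compound exposure of cells in 96-well plates, five concentrations, linear interpolation of endpoints. TGI marks complete inhibition of growth.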

Experiments:
Assay in all cases: NCI anticancer screen, dose series, 48 h
SR leukemia = test system: SR leukemia
SF-539 CNS = test system: SF-539 CNS
DLD-1 colon = test system: DLD-1 colon
OVCAR-3 ovarian = test system: OVCAR-3 ovarian
KM12 colon = test system: KM12 colon
MOLT-4 leukemia = test system: MOLT-4 leukemia
SF-268 CNS = test system: SF-268 CNS
OVCAR-8 ovarian = test system: OVCAR-8 ovarian
SNB-19 CNS = test system: SNB-19 CNS
NCI-H226 lung = test system: NCI-H226 lung
SF-295 CNS = test system: SF-295 CNS
LXFL 529 NSCLC = test system: LXFL 529 NSCLC
NCI-H23 lung = test system: NCI-H23 lung
M14 melanoma = test system: M14 melanoma
SW-620 colon = test system: SW-620 colon
HT29 colon = test system: HT29 colon
HOP-92 NSCLC = test system: HOP-92 NSCLC
TK-10 renal = test system: TK-10 renal
HOP-62 NSCLC = test system: HOP-62 NSCLC
COLO 205 colon = test system: COLO 205 colon
SNB-75 CNS = test system: SNB-75 CNS
SK-MEL-2 melanoma = test system: SK-MEL-2 melanoma
IGROV1 ovarian = test system: IGROV1 ovarian
SK-MEL-28 melanoma = test system: SK-MEL-28 melanoma
CCRF-CEM leukemia = test system: CCRF-CEM leukemia
786-0 renal = test system: 786-0 renal
ACHN renal = test system: ACHN renal
SN12C renal = test system: SN12C renal
SNB-78 CNS = test system: SNB-78 CNS
LOX IMVI melanoma = test system: LOX IMVI melanoma
U251 CNS = test system: U251 CNS
XF 498 CNS = test system: XF 498 CNS
RPMI-8226 leukemia = test system: RPMI-8226 leukemia
KM20L2 colon = test system: KM20L2 colon
HL-60(TB) leukemia = test system: HL-60(TB) leukemia
DMS 114 small cell lung = test system: DMS 114 small cell lung
EKVX NSCLC = test system: EKVX NSCLC
MALME-3M melanoma = test system: MALME-3M melanoma
SK-OV-3 ovarian = test system: SK-OV-3 ovarian
HCT-116 colon = test system: HCT-116 colon
NCI-H522 lung = test system: NCI-H522 lung
UACC-62 melanoma = test system: UACC-62 melanoma
NCI-H460 lung = test system: NCI-H460 lung
RXF 393 renal = test system: RXF 393 renal
HCC-2998 colon = test system: HCC-2998 colon
DMS 273 small cell lung = test system: DMS 273 small cell lung
K-562 leukemia = test system: K-562 leukemia
UACC-257 melanoma = test system: UACC-257 melanoma
M19-MEL melanoma = test system: M19-MEL melanoma
A549 NSCLC = test system: A549 NSCLC
UO-31 renal = test system: UO-31 renal
A498 renal = test system: A498 renal
HCT-15 colon = test system: HCT-15 colon
SK-MEL-5 melanoma = test system: SK-MEL-5 melanoma
OVCAR-4 ovarian = test system: OVCAR-4 ovarian
HOP-18 NSCLC = test system: HOP-18 NSCLC
CAKI-1 renal = test system: CAKI-1 renal
OVCAR-5 ovarian = test system: OVCAR-5 ovarian

Measured: TGI

C=CCC(N(C)C(=O)[C@H](Cc1ccccc1)NC(=O)OCc1ccccc1)P(=O)(Oc1ccccc1)Oc1ccccc1 (stereo not given in full)
not listed: A498 renal | HCT-15 colon | SK-MEL-5 melanoma | OVCAR-4 ovarian | HOP-18 NSCLC | CAKI-1 renal | OVCAR-5 ovarian
> 100 µM: all other assays above

COC(=O)/C(=N\NC(=O)C[N+](C)(C)C)C(C(=O)OC)C(=O)C(=O)Nc1ccccc1C(N)=O (stereo not given)
not listed: OVCAR-8 ovarian | HOP-92 NSCLC | XF 498 CNS | DMS 114 small cell lung
> 100 µM: all other assays above
